According to patent US20240173439A1, “FLUORINE-CONTAINING COMPOUND AND CONTRAST MEDIUM” (TDK CORPORATION, priority 2021, published 2024):

Experiment: Measurement of 19F spin-lattice relaxation time (T1) by inversion recovery, 500 MHz NMR
Assay type: physicochemical
Settings: 50 mM in CDCl3, 36° C.
Experimental: (Measurement of ^19F Spin-Lattice Relaxation Time (T1))
A compound was dissolved in a deuterated chloroform solution at a concentration of 50 mM, and the longitudinal relaxation time (T1) of ^19F nucleus was measured through an inversion recovery method using a 500 MHz NMR device under the conditions shown below.
Measurement Conditions • NMR device: JNM-ECA500 (manufactured by JEOL) • Measurement temperature: 36° C. • Pulse sequence: double_pulse • relaxation_delay: 10[s] • tau_interval: 4, 3, 2, 1, 0.8, 0.6, 0.4, 0.2, 0.1[s], 80, 60, 40, 20, 10, 8, 6, 4, 2[ms] • Number of times of integration: 16 times

Row | SMILES | T1 (19F spin-lattice relaxation time) [s]
1 | CC1(C)CC(OCCCCOC(C(F)(F)F)(C(F)(F)F)C(F)(F)F)CC(C)(C)N1[O] [Compound 11, 4-(4-((1,1,1,3,3,3-hexafluoro-2-(trifluoromethyl)propane-2-yl)oxy)butoxy)-2,2,6,6-tetra methylpiperidine-1-oxyl] | 0.134
2 | CC1(C)CC(OCCOC(C(F)(F)F)(C(F)(F)F)C(F)(F)F)CC(C)(C)N1[O] [Compound 12] | 0.121
3 | CC1(C)CC(OCCC(F)(F)F)CC(C)(C)N1[O] [Compound 13] | 0.105
4 | CC1(C)CC(OCCCC(F)(F)F)CC(C)(C)N1[O] [Compound 14] | 0.117
5 | CC1(C)CC(OC(C(F)(F)F)(C(F)(F)F)C(F)(F)F)CC(C)(C)N1[O] [Compound 15, 4-((1,1,1,3,3,3-hexafluoro-2-(trifluoromethyl)propane-2-yl)oxy)-2,2,6,6-tetramethylpiper idine-1-oxyl] | 0.094
6 | CC1(C)CC(OC(C(F)(F)F)C(F)(F)F)CC(C)(C)N1[O] [Compound 16] | 0.096
7 | CC1(C)CC(OCC(F)(F)F)CC(C)(C)N1[O] [Compound 17] | 0.101
8 | CC1(C)CC(Oc2ccccc2C(F)(F)F)CC(C)(C)N1[O] [Compound 18] | 0.098
9 | CC1(C)CC(Oc2cccc(C(F)(F)F)c2)CC(C)(C)N1[O] [Compound 19] | 0.110
10 | CC1(C)CC(Oc2cc(C(F)(F)F)cc(C(F)(F)F)c2)CC(C)(C)N1[O] [Compound 20] | 0.108
11 | CC1(C)CC(Oc2ccc(C(F)(F)F)cc2)CC(C)(C)N1[O] [Compound 21] | 0.123
12 | CCC1(CC)CC(OCCCCOC(C(F)(F)F)(C(F)(F)F)C(F)(F)F)CC(CC)(CC)N1[O] [Compound 22, 4-(4-((1,1,1,3,3,3-hexafluoro-2-(trifluoromethyl)propane-2-yl)oxy)butoxy)-2,2,6,6-tetraet hylpiperidine-1-oxyl] | 0.130
13 | CCC1(CC)CC(OCCOC(C(F)(F)F)(C(F)(F)F)C(F)(F)F)CC(CC)(CC)N1[O] [Compound 23] | 0.118
14 | CC1(C)CC(OC(C(F)(F)F)(C(F)(F)F)C(F)(F)F)CC(C)(C)N1[O] [Compound 24, 4-((1,1,1,3,3,3-hexafluoro-2-(trifluoromethyl)propane-2-yl)oxy)-2,2,6,6-tetramethylpiperidine-1-oxyl] | 0.092
15 | CCC1(CC)CC(OCCCCOC(C(F)(F)F)(C(F)(F)F)C(F)(F)F)CC(C)(C)N1[O] (stereo not shown) [Compound 25, 4-(4-((1,1,1,3,3,3-hexafluoro-2-(trifluoromethyl)propane-2-yl)oxy)butoxy)-2,2-diethyl-6,6-dimethylpiperidine-1-oxyl] | 0.127
16 | CC1(C)CC(OCCCCOC(C(F)(F)F)C(F)(F)F)CC(C)(C)N1[O] [Compound 26, 4-(4-((1,1,1,3,3,3-hexafluoropropane-2-yl)oxy)butoxy)-2,2,6,6-tetramethylpiperidine-1-o xyl] | 0.130
17 | CC1(C)CC(OCCCCCCCCOC(C(F)(F)F)(C(F)(F)F)C(F)(F)F)CC(C)(C)N1[O] [Compound 27, 4-((8-((1,1,1,3,3,3-hexafluoro-2-(trifluoromethyl)propane-2-yl)oxy)octyl)oxy)-2,2,6,6-tet ramethylpiperidine-1-oxyl] | 0.130
18 | CC1(C)CC(OCCCCCCCCCCCCOC(C(F)(F)F)(C(F)(F)F)C(F)(F)F)CC(C)(C)N1[O] [Compound 28] | 0.214
19 | CC1(C)CC(OCCCCCCCCCCCCCCCCOC(C(F)(F)F)(C(F)(F)F)C(F)(F)F)CC(C)(C)N1[O] [Compound 29] | 0.284
